Test results reported in patent publication US12233143B2, “Topical compositions containing rose oil and cannabidiol and methods of making and using the same” (priority 2019, dated 2025).
Where “and” joins values, the source holds several entries; their conditions need not be identical. Equal entries are not always repeated.

Tests used:
[1] = system: PMA-induced PGE2 release by NCTC-2544 keratinocytes; assay: PMA-induced PGE2 release, ELISA; type: cell-based, human
Procedure: (§1) The effect of S-863d and S-863g on inflammation in keratinocytes was evaluated by measuring phorbol myristate acetate (PMA)-induced interleukin-8 (IL-8) and prostaglandin E2 (PGE2) release from a NCTC-2544 keratinocyte cell line by enzyme-linked immunosorbent assay (ELISA).
(§2) Materials: A NCTC-2544 human keratinocyte cell line (NCTC-2544 cells) was cultured at 37° C. in the presence of 5% CO2. The NCTC-2544 cells were grown in Dulbecco's Modified Eagle Medium (DMEM) supplemented with L-glutamine (2 mM), penicillin (50 U/mL), Streptomycin (50 μg/mL), and fetal calf serum (FCS) (10%). S-863d contained 3% phospholipids, 54% glycerin, 10% caprylic/capric triglyceride, 1% cannabidiol, 2% AlpineRoseActive™, 1% glycoin, 0.1% tocopherol, and water (ad 100%). The particle size (zAve) of S-863d was 90±50 nm, and the pH of S-863d was between 4.5 and 7.5. The total germ count of S-863d was <100 CFU/g. S-863d was stored at 4° C. in a dark space in a closed container. S-863g (negative control) contained 1% CBD in DMSO. S-863 d was evaluated at 0.004%, 0.02%, and 0.1%. S-863g was evaluated at 0.00044%, 0.0013%, and 0.004%.
(§3) Methods: The keratinocytes were seeded in 96-well plates and cultured for 24 hours in culture medium. The medium was then replaced by culture medium containing or not (control) the test compounds or the reference compound (dexamethasone at 10′ M for IL-8 assay and indomethacin at 10′ M for PGE2 assay) and the cells were pre-incubated for 24 hours. After pre-incubation, the medium was replaced by culture medium containing or not (control) the test compounds or the reference compounds and the inflammatory inducer phorbol myristate acetate (PMA) at 0.1 μg/mL was added. The cells were further incubated for 24 hours. A control without inducer was performed in parallel (non-stimulated control condition). All experimental conditions were performed in triplicate. IL-8 and PGE2 released in the culture supernatants were measured by ELISA.
(§4) Inhibition of IL-8 and PMA-induced PGE2 release was measured using the following formula: […]

[2] = system: human keratinocyte stem cells (KSC); assay: Migration of keratinocyte stem cells, scratch wound gap recovery; type: cell-based; conditions: 24 hours of incubation
Procedure: The effect of S-863d and S-863g on wound healing in keratinocytes was evaluated. The migration of human keratinocyte stem cells (KSC) was evaluated by measuring wound recovery using imaging on a system whereby a “wound gap” was created by scratching.
Materials: Human keratinocyte cells (KSC) were used at the third passage and cultured at 37° C. in the presence of 5% CO2. The NHEK cells were grown in keratinocyte serum free media supplemented with gentamycin (25 μg/mL), pituitary extract (PE) (25 μg/mL), and epidermal growth factor (EGF) (0.25 ng/ml). S-863d contained 3% phospholipids, 54% glycerin, 10% caprylic/capric triglyceride, 1% cannabidiol, 2% AlpineRoseActive™, 1% glycoin, 0.1% tocopherol, and water (ad 100%). The particle size (zAve) of S-863d was 90±50 nm, and the pH of S-863d was between 4.5 and 7.5. The total germ count of S-863d was <100 CFU/g. S-863d was stored at 4° C. in a dark space in a closed container. S-863g (negative control) contained 1% CBD in DMSO. S-863d was evaluated at 0.004%, 0.02%, and 0.1%. S-863g was evaluated at 0.00044%, 0.0013%, and 0.004%.
Methods: The KSCs were seeded in 24-well plates (previously coated with a collagen I solution) and cultured in culture medium for 24 hours. The medium was then replaced by assay medium and an artificial “wound gap” was generated by scratching the cell monolayers. The KSCs were labeled with calcien-AM. After 30 minutes of incubation (TO), the medium was replaced by assay medium containing or not (control condition) the test compounds or the reference compound (e.g. epidermal growth factor (EGF) at 10 ng/mL) and the cells were further incubated for 24 hours. The labeling with calcein-AM was renewed before the final timepoint. All experimental conditions were performed in triplicate. Cell migration into the migration zone was observed after 0 (TO) and 24 hours of incubation using a high-resolution imaging system INCell Analyzer′ 2200 (GE Healthcare) automated microscope and the artificial wound area was analyzed using ImageJ software. One picture was taken per well (objective lens×4). The artificial wound area was measured after 24 hours of incubation and compared to the area measured at TO in order to visualize and quantify the wound recovery. The effect of compounds on cell migration was compared to the untreated control.
The migration area (percentage of wound recovery) was calculated using the following formula: […]

[3] = system: PMA-induced IL-8 release by NCTC-2544 keratinocytes; assay: PMA-induced IL-8 release, ELISA; type: cell-based, human; conditions: Dexamethasone 10^−7 M, PMA 0.1 μg/ml
Procedure: as §1, §2, §3, §4

**Q.** With COc1ccc2c(c1)c(CC(=O)O)c(C)n2C(=O)c1ccc(Cl)cc1 [Indomethacin, indomethacin] as the compound, how does the inhibition at 1 µM ([1]; Homo sapiens, NCTC-2544, read-out: PGE2 % Relative inhibition) read?
**A.** > 100%

**Q.** What about the “PGE2 Mean” value ([1]; Indomethacin 10^−6 M, PMA 0.1 μg/ml, non-diluted samples) of the same compound?
**A.** <39 pg/mL

**Q.** What about the “PGE2 (pg/ml) dilution factor adjusted” value ([1]; Indomethacin 10^−6 M, PMA 0.1 μg/ml, non-diluted samples, single replicate) of the same compound?
**A.** <39 pg/mL

**Q.** And the “PGE2 % Stimulated control” value ([1]; Indomethacin 10^−6 M, PMA 0.1 μg/ml, extrapolated from values below detection limit)?
**A.** <0%

**Q.** What about the “Effect on PMA-induced PGE2 release (in words)” value ([1]; NCTC-2544 cells, PMA 0.1 μg/mL) of the same compound?
**A.** completely inhibited

**Q.** How did the “Effect on KSC migration / wound recovery (in words)” value ([2]; all tested concentrations) turn out when epidermal growth factor [EGF] was run?
**A.** marked stimulation

**Q.** What about the “Wound Recovery Mean” value ([2]; EGF 10 ng/ml) of the same compound?
**A.** 73%

**Q.** What about the “Wound recovery % Control” value ([2]; EGF 10 ng/ml) of the same compound?
**A.** 183 % Control

**Q.** What about the “24 Hours Wound area” value ([2]; EGF 10 ng/ml, single image) of the same compound?
**A.** 0.46 mm^2 and 0.50 mm^2 and 0.76 mm^2

**Q.** What about the “Wound Recovery” value ([2]; EGF 10 ng/ml, single image) of the same compound?
**A.** 80% and 75% and 64%

**Q.** Which “IL-8 % Stimulated control” value [3] does the source give for C[C@@H]1C[C@H]2[C@@H]3CCC4=CC(=O)C=C[C@]4(C)[C@@]3(F)[C@@H](O)C[C@]2(C)[C@@]1(O)C(=O)CO [Dexamethasone, dexamethasone] here?
**A.** 18%

**Q.** And the “IL-8 Mean” value [3]?
**A.** 22112 pg/mL

**Q.** And the “IL-8 (pg/ml) dilution factor adjusted” value ([3]; single replicate)?
**A.** 18117 pg/mL and 23002 pg/mL and 25217 pg/mL

**Q.** What about the inhibition at 0.1 µM ([3]; Homo sapiens, NCTC-2544, read-out: IL-8 % Relative inhibition) of the same compound?
**A.** 82%
